Results: article PMC11725581, “Developing novel Lin28 inhibitors by computer aided drug design” (Cell Death Discovery, 2025)

What was measured:
[1] = test system: Lin28b, let-7 target, CSC and NE biomarker genes in DuNE cells; assay: Gene expression (real-time qPCR, immunoblotting) in DuNE cells; type: cell-based; conditions: 72 h
Procedure: Fig. 4 Ln268 strongly blocks cancer cell stemness of t-NEPC cells. A, B DuNE cells were treated with C1632, Ln15, and Ln268 for 72 h. Selected Let-7 targeted genes, stem cell biomarkers and NE biomarkers were measured by real-time qPCR (A). Lin28b and its downstream HMGA2 protein levels were measured by immunoblotting (B). C DuNE spheroids were treated with 0–100 μM of C1632, Ln15, and Ln268 for 0–6 days. Spheroid sizes were measured and plotted. D DuNE cells were used to perform colony formation assays in the presence of C1632, Ln15 and Ln268 for 14 days. The number of colonies formed in each treatment counted and plotted. E DuNE cells under 3D culture conditions were treated with C1632, Ln15, and Ln268 at the indicated concentrations. Cell growth rates were measured by Incucyte. F DuNE cells were treated with 0–20 μM Ln268 for 144 h. FACS measured cell populations at each stage of cell cycling. Three independent biological replicates were performed for all the assays. All results are presented as the mean ± SD.
Total RNA was extracted by TRIZOL reagent (Invitrogen), treated with deoxyribonuclease and reversely transcribed by random hexamers and superscript II (Invitrogen). Real-time qPCR was performed on the ABI PRISM 7900 HT system (Applied Biosystems) using the FastStart Universal SYBR Green Master mix (Roche) following standard protocol as we reported. […]

[2] = test system: Lin28b protein expression in DuNE cells; assay: Lin28b protein levels by immunoblotting in DuNE cells; type: cell-based; conditions: 20uM, 72 h
Procedure: We further tested whether the 13 candidate compounds could penetrate the cell membrane, endure cell-mediated metabolism and excretion, and inhibit Lin28 activities inside cancer cells. […] Since let-7 and Lin28b mutually regulate each other’s expression, increased let-7 expression by Lin28 inhibitors would suppress Lin28b protein levels.
Fig. 3 Validate CADD predicted compounds by cell-based assays. A, B DuNE cells were treated with Lin28b inhibitors for 72 h. Let-7d RNA levels were measured by real-time qPCR (A) and Lin28b protein levels were measured by immunoblotting (B). […] Cell proliferation rates were measured by Incucyte. D Overlay of 1H-15N HSQC spectra for Lin28b-ZKD (black), Lin28b-ZKD + Ln15 (orange), and Lin28b-ZKD + Ln268 (blue). Ligands were added in a 20:1 molar ratio. Approximately 20 residues are seen to shift (from black to orange/blue), with ca. 5 resonances disappearing for Lin28b-ZKD in the presence of Ln268. E Overlay of the 20 NMR models for 2CQF (gray) and 2LI8 (blue) showing the rearrangement of residues 137–160 in going from Lin28b-ZKD alone to the conformation with RNA present. The conformation of Lin28b-ZKD in the presence of the ligands described herein might resemble that of 2LI8, but with a larger conformational spread. All results are presented as the mean ± SD.
Total RNA was extracted by TRIZOL reagent (Invitrogen), treated with deoxyribonuclease and reversely transcribed by random hexamers and superscript II (Invitrogen). Real-time qPCR was performed on the ABI PRISM 7900 HT system (Applied Biosystems) using the FastStart Universal SYBR Green Master mix (Roche) following standard protocol as we reported. All real-time qPCR assays were carried out in triplicates from three independent cDNA syntheses. For immunoblotting assays, whole cell lysis was extracted by a buffer containing 50mM of Tris pH8.0, 150mM of NaCl, 1% NP40, 0.5% sodium deoxycholate, 0.1% SDS and proteinase and phosphatase inhibitors (Roche). Protein lysis separated by SDS-PAGE, transferred to polyvinylidene difluoride membrane, and blotted by specific antibodies.

Lin28b ZKD = molecular target: T1, Lin28b ZKD (Homo sapiens, UniProt Q6ZN17); assay: 1H-15N HSQC NMR of Lin28b-ZKD with ligand; type: binding; conditions: ligand added in 20:1 molar ratio
T1 sequence (Q6ZN17 127-166 limits assumed): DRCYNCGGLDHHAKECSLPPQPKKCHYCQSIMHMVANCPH
Text: Given that Ln268 is derived from the parent compound Ln15, we wanted to assess whether the improved properties of Ln268 were linked to a potential difference in its interaction with Lin28 ZKD. To this end, we collected ^1H-^15N HSQC spectra of Lin28b-ZKD, Lin28b-ZKD + Ln15, and Lin28b-ZKD + Ln268. RNA binding proteins (RBPs) commonly have binding pockets that are intrinsically disordered, as evidenced by the narrow chemical shift dispersion observed in the HQSC of Lin28b-ZKD alone (Fig. 3D). Addition of either Ln15 or Ln268 led to changes in the chemical shifts of ca. 20 residues, consistent with the change in conformation of the Lin28b-ZKD segment which encompasses residues 137–160 (three of which are prolines) upon RNA binding (Fig. 3E). Although many of the peak shifts are the same for the Ln15 and Ln268 containing samples, there are around 7 resonances where the peaks disappear in the case of Ln268.
NMR spectra were recorded at 5 °C on a Bruker Avance III 850 MHz spectrometer, equipped with a TCI cryoprobe. ^1H-^15N HSQC experiments were recorded on ^13C/^15N-labeled Lin28b ZKD (230 μM), in 20 mM d-Tris-HCl (pH 7.5), 100 mM NaCl, 1 mM d-DTT, 0.02% NaN3, 0.25 mM ZnCl2 + 1 mM IDA, and 10% D2O, to which unlabeled Ln15 and Ln268 was added, respectively. The time domain matrix was 4k by 512. Four scans were acquired per t1 increment. Spectra were processed and plotted using Topspin to a final size of 8k by 1k. For the overlays, the levels were set to the same base level in all cases, with a multiplication factor of 1.1.

ANA3CA cells = assay: Cell proliferation (Incucyte), ANA3CA; type: cell-based; conditions: Lin28a/Lin28b-positive
Text: (§1) To further evaluate whether the suppressive effects of Ln268 are specific to Lin28-positive cancer cells, we compared cell growth rates of DuNE (Lin28b-positive line) and Du145 (Lin28b-negative line), both of which are Lin28a-negative. DuNE has the same genomic background with Du145 except for the transduction of the SRRM4 gene. […] Furthermore, Ln268 had no impact on the cell growth of DuNE(KO) cells, in which the Lin28b gene was knocked out by CRISPR (Fig. 5C). […] We also tested several ovarian and endometrial cancer cell lines with different Lin28a and Lin28b expression profiles (Fig. 5E).

Kuramochi cells = assay: Cell proliferation (Incucyte), Kuramochi; type: cell-based; conditions: Lin28a/Lin28b-positive
Text: as §1

## O=c1[nH]c(Nc2ccc(F)cc2O)cs1 [Ln268]
[1]
  effect on Lin28b mRNA and protein levels: potently inhibited Lin28b at both mRNA and protein levels
[1]; qPCR
  inhibition of Oct4, Nanog and ID4 expression relative to C1632: stronger inhibitory effects than C1632
[2]
  effect on Lin28b protein expression: suppressed Lin28b protein expression
Lin28b ZKD
  residues of Lin28b-ZKD with changed chemical shifts (1H-15N HSQC): ca. 20 residues
  resonances of Lin28b-ZKD whose peaks disappear (1H-15N HSQC): around 7 resonances
ANA3CA cells
  effect on growth of ANA3CA cells: suppressed the growth
Kuramochi cells
  effect on growth of Kuramochi cells: suppressed the growth
